# Results from patent US20210290537A1, “LIPOSOMAL ELINAFIDE FORMULATIONS AND USES THEREOF” (MALLINCKRODT LLC, priority 2016, published 2021).
# Where two headings read alike, the source gives them in different places.
# Key:
# [1] = phase I studies / clinical development, background; cited from earlier work
# [2] = MTD of liposomal and free naphthalimides and azonifides; type: in vivo
# [3] = test system: HT-29 human colorectal adenocarcinoma cells; assay: In vitro IC50 cytotoxicity, Alamar Blue cell viability; type: cell-based
# Procedure: HT-29 human colorectal adenocarcinoma cells (#HTB-38, ATCC, Manassas, Va.) were plated in 96-well tissue culture plates (Costar #3595) at 5×10^3 cells/well in a final volume of 0.1 mL of 10% fetal bovine serum in McCoy's 5A (#10-050-CV, Mediatech, Manassas, Va.). Defined fetal bovine serum was obtained from HyClone (#SH30070.03, lot #AWB96395, Logan, Utah). Plates containing cells were incubated at 37° C. in 5% CO2 in humidified air for 24 hr. The selected initial cell plating density was chosen based upon the approximate doubling time of the human tumor cell line.
# Test compounds were diluted from stock solutions to 2.2 mmol/L in Dulbecco's modified phosphate-buffered saline (DPBS; Mediatech, Inc., lot #21031339, Manassas, Va.), then serially diluted three-fold in DPBS to generate a nine point dose-response curve. Ten microliters of diluted test compounds were added to wells in triplicate to achieve the desired final concentration of test compounds. Plates containing cells with and without added test compounds were returned to incubation as described above.
# For the two hour cytotoxicity assessment, medium was removed after two hours of drug exposure and replaced with 0.1 mL/well culture medium, and cells were incubated for an additional 70 hours as above.
# For the twenty-four hour cytotoxicity assessment, medium was removed after one day of drug exposure and replaced with 0.1 mL/well culture medium, and cells were returned to incubation for an additional 48 hours. Subsequently, cell viability was assessed using Alamar Blue. For this purpose, media was removed by pipetting from cultured cells and replaced with 0.1 mL/well of 10% (v/v) Alamar Blue (#BUFO12A, AbD Serotec, Raleigh, N.C.) diluted in the appropriate cell culture media. Plates were then returned to incubation as before for appropriate color development, between two to four hours.
# Fluorescence of individual plate wells was measured at 545 nm/590 nm (excitation/emission) using a BioTek Synergy4 microplate reader. Cell viability was calculated as a percentage of measured fluorescence obtained relative to cells treated with culture media alone. IC50 values (μmol/L) were determined with the mean of triplicate values using nonlinear regression analysis and a four-parameter logistic model.
# [4] = Single-dose muscle myopathy study, 14-day observation; type: in vivo; details: for Myopathy / Survival: rats, 14 days
# From the text: Rats that loss greater than 20% of its body weight were dropped from the study. […]
# in vivo = details: rat, plasma, 20 mg/kg
# [5] = Table 7, read-out: 2 hr Tx (IC50)
# [6] = Table 7, read-out: 24 hr Tx (IC50)
# [7] = Table 7, read-out: 72 hr Tx (IC50)
# [8] = mouse, in vivo, male athymic nude mice, read-out: MTD
# [9] = Homo sapiens, 2 h, Table 7, read-out: 2 hr Tx (IC50)
# [10] = Homo sapiens, 24 h, Table 7, read-out: 24 hr Tx (IC50)
# [11] = Homo sapiens, 48 h, Table 7, read-out: 48 hr Tx (IC50)
compound,measurement,setting,value
C[C@H](CNCCNC[C@@H](C)N1C(=O)c2cccc3cc([N+](=O)[O-])cc(c23)C1=O)N1C(=O)c2cccc3cc([N+](=O)[O-])cc(c23)C1=O [DMP-840],dose-limiting toxicity in clinical study,[1],dose limiting toxicity
CN(C)CCN1C(=O)c2cccc3cc([N+](=O)[O-])cc(c23)C1=O [mitonafide],dose-limiting toxicity in clinical study,[1],dose limiting toxicity
Ethonafide [Ethonafide Free],MTD,"[2]; mouse, in vivo",15 mg/kg
same,IC50,[3]; [5],751 nM
same,IC50,[3]; [6],189 nM
same,IC50,[3]; [7],388 nM
"O=C1c2cccc3cccc(c23)C(=O)N1CCNCCCNCCN1C(=O)c2cccc3cccc(c23)C1=O [Free Elinafide, Elinafide]",dose-limiting toxicity in clinical study,[1],cumulative dose-limiting neuro-muscular toxicity and myelosuppression
same,muscle myopathy in treated rats,"[4]; administration at MTD, single dose",significant muscle myopathy
same,Myopathy,"[4]; 25 mg/kg, F",1/3
same,Survival,"[4]; 25 mg/kg, F",3/3
same,Myopathy,"[4]; 25 mg/kg, M",2/3
same,Survival,"[4]; 25 mg/kg, M",3/3
same,Myopathy,"[4]; 35 mg/kg, F",3/3
same,Survival,"[4]; 35 mg/kg, F",3/3
same,Survival,"[4]; 35 mg/kg, M",0/3
same,AUC,in vivo,4.7 ng·h/mL
same,Cmax,in vivo,1.4 ng/mL
same,Vd,in vivo,204000
same,half-life,in vivo,53.5 h
"CN(C)CCN1C(=O)c2cccc3cc(NC(N)=O)cc(c23)C1=O [UNBS-5162 Free, UNBS-5162]",MTD,[2]; male athymic nude mice,45 mg/kg
same,dose-limiting toxicity in clinical study,[1],dose limiting toxicity
same,IC50,[3]; [5],> 100000 nM
same,IC50,[3]; [6],24800 nM
same,IC50,[3]; [7],31300 nM
"CN(C)CCN1C(=O)c2cccc3cc(N)cc(c23)C1=O [Amonafide Free, Amonafide]",MTD,[2]; [8],45 mg/kg
same,dose-limiting toxicity in clinical study,[1],high variability and dose-limiting toxicity
same,IC50,[3]; [9],90300 nM
same,IC50,[3]; [10],34200 nM
same,IC50,[3]; [11],15700 nM
"CN(C)CCN1C(=O)c2cccc3cc4ccccc4c(c23)C1=O [Azonifide Free, Azonifide]",MTD,[2]; [8],10 mg/kg
same,IC50,[3]; [9],1170 nM
same,IC50,[3]; [10],256 nM
same,IC50,[3]; [11],283 nM
same,IC50,"[3]; Homo sapiens, 72 h, Table 7, read-out: 72 hr Tx (IC50)",386 nM
